Test results published in ChEMBL document CHEMBL5550096, “Casitas b cell lymphoma‑B (Cbl-b): A new therapeutic avenue for small-molecule immunotherapy” (Bioorg Med Chem, 2024).
Where a SMILES comes first, the peptide text is derived from it. [ ]: non-standard residue; d: D form. The star is where a group is joined. pY = N[C@@H](Cc1ccc(OP(=O)(O)O)cc1)C(=O)O; Myristoyl = CCCCCCCCCCCCCC(=O)*

Biological target: T1, E3 ubiquitin-protein ligase CBL-B (Homo sapiens, UniProt Q13191)
T1 sequence (Q13191 whole entry): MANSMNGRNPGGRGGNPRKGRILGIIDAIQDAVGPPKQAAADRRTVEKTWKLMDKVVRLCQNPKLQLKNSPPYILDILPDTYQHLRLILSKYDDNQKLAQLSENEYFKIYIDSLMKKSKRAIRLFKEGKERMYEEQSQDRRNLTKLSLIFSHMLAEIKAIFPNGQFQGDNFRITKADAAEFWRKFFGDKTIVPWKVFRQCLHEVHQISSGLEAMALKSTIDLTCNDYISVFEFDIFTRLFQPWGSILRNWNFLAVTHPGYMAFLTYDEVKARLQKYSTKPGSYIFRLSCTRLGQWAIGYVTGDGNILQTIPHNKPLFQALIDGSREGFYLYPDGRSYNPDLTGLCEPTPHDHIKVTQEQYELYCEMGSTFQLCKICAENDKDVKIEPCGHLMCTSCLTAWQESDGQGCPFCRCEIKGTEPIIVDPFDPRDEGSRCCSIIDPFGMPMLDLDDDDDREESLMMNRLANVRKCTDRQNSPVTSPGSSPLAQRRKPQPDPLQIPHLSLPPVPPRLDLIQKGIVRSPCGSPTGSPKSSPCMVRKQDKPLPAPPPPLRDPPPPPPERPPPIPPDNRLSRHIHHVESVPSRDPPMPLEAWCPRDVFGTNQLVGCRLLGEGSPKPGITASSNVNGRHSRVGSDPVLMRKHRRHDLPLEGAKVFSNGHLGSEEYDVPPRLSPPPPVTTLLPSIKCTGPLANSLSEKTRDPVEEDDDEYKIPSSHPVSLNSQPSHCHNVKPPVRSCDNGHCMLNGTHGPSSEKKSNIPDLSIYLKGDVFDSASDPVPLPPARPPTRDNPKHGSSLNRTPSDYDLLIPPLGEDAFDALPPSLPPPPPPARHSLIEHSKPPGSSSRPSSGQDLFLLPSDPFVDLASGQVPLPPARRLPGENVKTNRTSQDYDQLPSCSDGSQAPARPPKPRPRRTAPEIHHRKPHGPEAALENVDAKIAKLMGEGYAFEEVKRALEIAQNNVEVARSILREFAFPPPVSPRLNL
Description: Binding affinity to CBl-b (unknown origin) assessed as dissociation constant by Surface plasmon resonance

SMILES | Kd
Cc1cc(C(=O)Nc2cccc(C3(Cc4nncn4C)COC3)c2)nc(C2CC2)n1 | 20 nM
C[C@H]1CCCN(Cc2cc3c(c(C(F)(F)F)c2)CN(c2cccc([C@]4(c5nncn5C)C[C@@H](C)C4)c2)C3=O)C1 | 8 nM
COCC1(NCc2cc3c(c(C(F)(F)F)c2)CN(c2cccc([C@]4(c5nncn5C)C[C@H](OC)C4)c2)C3=O)CC1 | 4 nM

Biological target: T1, E3 ubiquitin-protein ligase CBL-B
Assay: Inhibition of Cbl-b (unknown origin)

SMILES | IC50
Cn1cnnc1C(F)(F)[C@](C)(F)c1cccc(NC(=O)N2CC3(CNC3)Oc3cccnc32)c1 | < 100 nM
C[C@H](Cc1nncn1C)c1cccc(-c2n[nH]c3c(CN4CC[C@H](F)C4)cc(C(F)(F)F)nc23)c1 | < 100 nM
Cc1cc(CNC2(C)CCC2)cc2c(=O)c(-c3cccc([C@]4(c5nncn5C)C[C@@H](C)C4)c3)coc12 | 10 nM
Cn1cnnc1[C@]1(c2cccc(NC(=O)c3cc(CN4CCC[C@H](C(F)F)C4)cn4ccnc34)c2)C[C@H](CC#N)C1 | 5 nM
CC(c1cc(C(=O)Nc2cccc([C@]3(c4nncn4C)C[C@@H](CC#N)C3)c2)nc2cc[nH]c12)N1CCC[C@H](C)C1 (stereo partly specified) | 11000 nM
C[C@H]1CCCN(Cc2cc(C(F)(F)F)c3[nH]c(-c4cccc([C@]5(c6nncn6C)C[C@@H](C)C5)c4)nc3c2)C1 | < 200 nM
Cn1cnnc1[C@]1(c2cccc(-n3cc4c(C(F)(F)F)cc(CN5CCC6(CC6)C5)cn4c3=O)c2)C[C@H](C)C1 | < 100 nM
Cn1cnnc1[C@]1(c2cccc(-c3cnc4c(C(F)(F)F)cc(CN5CC6CC(C)(C6)C5)cn4c3=O)c2)C[C@H](C)C1 | 20 nM
CO[C@@]1(C(=O)N/C=C/c2ccc(O)cc2)O[C@](O)(C(=O)N/C=C/c2ccc(O)cc2)[C@@H](c2ccc(O)c(O)c2)[C@@H]1c1ccc(O)c(O)c1 | 11000 nM
O=C(N/C=C/c1ccc(O)cc1)c1c(-c2ccc(O)c(O)c2)c(-c2ccc(O)c(O)c2)c(C(=O)N/C=C/c2ccc(O)cc2)n1CCc1ccc(O)cc1 | 6500 nM

Biological target: T1, E3 ubiquitin-protein ligase CBL-B
Assay: Inhibition of Cbl-b (unknown origin) by HTRF assay

SMILES | IC50
Cn1cnnc1-c1cc(C#N)ccc1-c1cc(C2CC2)nc(N2Cc3c(cc(CNCC4(F)CCC4)cc3C(F)(F)F)C2=O)c1 | < 200 nM
Cn1cnnc1[C@]1(c2cccc(N3C(=O)c4cc(CNC5(C)CCC5)cc5cccc3c45)c2)C[C@H](C)C1 | 20 nM
CC(C)[C@H]1CN(C)CCN1Cc1cc(C(=O)Nc2cccc(C3([C@@H](F)c4nncn4C)CC(F)(F)C3)c2)nc(C2CC2)c1 | 7 nM

Biological target: T1, E3 ubiquitin-protein ligase CBL-B
Assay: Inhibition of N-terminal His-tagged human Cbl-b (40 to 426 residues) expressed in Escherichia coli by measured for 90 mins by HTRF method

SMILES | IC50
Cc1cc(CNC2(C)CCC2)cc2c(=O)c(-c3cccc([C@]4(c5nncn5C)C[C@@H](C)C4)c3)coc12 | 13 nM
Cn1cnnc1[C@]1(c2cccc(NC(=O)c3cc(CN4CCC[C@H](C(F)F)C4)cn4ccnc34)c2)C[C@H](CC#N)C1 | 1 nM
CC(c1cc(C(=O)Nc2cccc([C@]3(c4nncn4C)C[C@@H](CC#N)C3)c2)nc2cc[nH]c12)N1CCC[C@H](C)C1 (stereo partly specified) | 4 nM
Cn1cnnc1[C@]1(c2cccc(-c3cnc4c(C(F)(F)F)cc(CN5CC6CC(C)(C6)C5)cn4c3=O)c2)C[C@H](C)C1 | 25 nM

System: not listed separately
Assay: Half life in rat plasma
Format: ADME, cell-free

SMILES | half-life
C[C@H](Sc1nncn1C)c1cccc(NC(=O)c2ccnc(C3CC3)n2)c1 | 2.33 h

System: not listed separately
Assay: Intrinsic clearance in mouse liver microsomes by HPLC-MS/MS analysis

SMILES | CLint scaled
C[C@H](Sc1nncn1C)c1cccc(NC(=O)c2ccnc(C3CC3)n2)c1 | 500 mL/min/kg

Biological target: T1, E3 ubiquitin-protein ligase CBL-B
Assay: Inhibition of Cbl-b (unknown origin) by TR-FRET assay

SMILES | IC50
Cc1cc(C(=O)Nc2cccc(C3(Cc4nncn4C)COC3)c2)nc(C2CC2)n1 | 20 nM

Biological target: T1, E3 ubiquitin-protein ligase CBL-B
Assay: Inhibition of biotinylated recombinant Cbl-b (36 to 427 residues)(unknown origin) expressed in Escherichia coli BL21(DE3) measured for 1 hr by TR-FRET assay

SMILES | IC50
Cn1cnnc1C(F)(F)[C@](C)(F)c1cccc(NC(=O)N2CC3(CNC3)Oc3cccnc32)c1 | < 100 nM
C[C@H](Cc1nncn1C)c1cccc(-c2n[nH]c3c(CN4CC[C@H](F)C4)cc(C(F)(F)F)nc23)c1 | < 100 nM
C[C@H]1CCCN(Cc2cc(C(F)(F)F)c3[nH]c(-c4cccc([C@]5(c6nncn6C)C[C@@H](C)C5)c4)nc3c2)C1 | < 200 nM
Cn1cnnc1[C@]1(c2cccc(-n3cc4c(C(F)(F)F)cc(CN5CCC6(CC6)C5)cn4c3=O)c2)C[C@H](C)C1 | < 100 nM

Biological target: T1, E3 ubiquitin-protein ligase CBL-B
Assay: Inhibition of Cbl-b (unknown origin) by SPR assay

SMILES | IC50
COCC1(NCc2cc3c(c(C(F)(F)F)c2)CN(c2cccc([C@]4(c5nncn5C)C[C@H](OC)C4)c2)C3=O)CC1 | 4 nM
Cn1cnnc1-c1cc(C#N)ccc1-c1cc(C2CC2)nc(N2Cc3c(cc(CNCC4(F)CCC4)cc3C(F)(F)F)C2=O)c1 | 200 nM
Cn1cnnc1[C@]1(c2cccc(N3C(=O)c4cc(CNC5(C)CCC5)cc5cccc3c45)c2)C[C@H](C)C1 | 20 nM

Biological target: T1, E3 ubiquitin-protein ligase CBL-B
Assay: Inhibition of Cbl-b (unknown origin) ubiquitination by TR-FRET assay

SMILES | IC50
Cc1cc(C(=O)Nc2cccc(C3(Cc4nncn4C)COC3)c2)nc(C2CC2)n1 | 21 nM
C[C@H]1CCCN(Cc2cc3c(c(C(F)(F)F)c2)CN(c2cccc([C@]4(c5nncn5C)C[C@@H](C)C4)c2)C3=O)C1 | < 5 nM
CC(C)[C@H]1CN(C)CCN1Cc1cc(C(=O)Nc2cccc(C3([C@@H](F)c4nncn4C)CC(F)(F)C3)c2)nc(C2CC2)c1 | 7 nM

Biological target: T1, E3 ubiquitin-protein ligase CBL-B
Assay: Inhibition of recombinant Cbl-b (unknown origin) ubiquitination incubated for 1 hr by TR-FRET assay

SMILES | IC50
C[C@H]1CCCN(Cc2cc3c(c(C(F)(F)F)c2)CN(c2cccc([C@]4(c5nncn5C)C[C@@H](C)C4)c2)C3=O)C1 | < 5 nM
Cn1cnnc1[C@]1(c2cccc(-n3cc4c(C(F)(F)F)cc(CN5CCC6(CC6)C5)cn4c3=O)c2)C[C@H](C)C1 | < 100 nM
CCCCCCCCCCCCCC(=O)N[C@@H](CC(=O)O)C(=O)NCC(=O)N[C@@H](Cc1ccc(OP(=O)(O)O)cc1)C(=O)N[C@@H](CCSC)C(=O)N1CCC[C@H]1C(=O)O (Myristoyl-DG[pY]MP-OH) | 30000 nM
